Data on nine compounds can be found in patent EP4620955A1, “MC4R ANTAGONIST COMPOUND, PHARMACEUTICAL COMPOSITION AND PHARMACEUTICAL USE THEREOF” (Changchun Genescience Pharmaceutical Co., Ltd., priority 2022, dated 2024).

Where two headings read alike, the source gives them in different places.

One data set concerns the target T1, MC4R (Homo sapiens, UniProt P32245).
T1 construct: expressed in transfected cells; host or cells: flipin-293-MC4 (Flp-In 293 host, hygromycin selection)
In words: Assay of MC4R antagonist activity in cells in vitro (cAMP assay, Melanotan I stimulation). It is filed as cell-based. To be noted: flipin-293-MC4 cell line, Melanotan I as agonist. As for the experimental part: Test Example 1: Assay of MC4R antagonist activity in cells in vitro
a. Experimental consumables:
b. Experimental steps • ✔ Cell line: flipin-293-MC4 • ✔ Cell culture medium: DMEM, 10% fetal bovine serum, 1 × PS, 200 µg/mL hygromycin • ✔ Experimental buffer: HBSS, 20 mM HEPES, 0.1% BSA, 500 µM IBMX • ✔ Positive compound: ML00253764 c. Antagonist detection • 1. Digested cells were suspended in the experimental buffer, and then inoculated into the 384-well cell culture plate. • 2. The to-be-detected compound was added to the cell plate, and incubated at 37°C for 10 min. • 3. Melanotan I was added to the cell plate, and incubated at 37°C for 30 min. • 4. Two detection reagents EU cAMP tracer and ulight anti camp were thawed and diluted with a lysis solution in the kit. • 5. The diluted detection reagents were added to the cell plate and incubated at room temperature for 1 h. • 6. Reading was carried out by Envision. (Excitation light: 340 nm, emission light: 615 nm and 665 nm) d. Data analysis • 1. %Inhibition calculation: %Inhibition = (Signalcmpd−SignalAve_VC)/(SignalAve_PC−SignalAve_VC) × 100. [formula] • Signalcmpd: compound signal value; • SignalAve_VC: negative control signal value; • SignalAve_PC: positive control signal value; • %inhibition: inhibition percentage. • 2. Calculation of IC50 of the compound using the nonlinear fitting equation in GraphPad: Y = Bottom + (Top−Bottom)/(1+10^(∧)((LogIC50−X)×HillSlope)) [formula] X: logarithmic value of the concentration of the compound; Y: inhibition percentage
Background: cAMP levels reflect the balance of adenylyl cyclase and phosphodiesterase activity.

Data set [1] can be described thus: Pharmacokinetic study on the tested compound in SD male rats. It is filed as in vivo. Conditions: IV 1 mpk/PO 2 mpk; for AUC / Cmax / clearance / half-life: Sprague-Dawley (SD), rat, plasma. As for the experimental part:
On the day of administration, the tested compound was prepared with 5% DMSO + 5% Solutol + 90% Saline as a solvent into a solution for administration for use.
The solution for administration was administered to an intravenous injection IV group at a dose of 1 mg/kg in a concentration of 0.2 mg/mL. The solution for administration was administered to an oral gavage PO group at a dose of 2 mg/kg in a concentration of 0.2 mg/mL. The animals in the PO group were required to fast overnight in advance, drink water freely, and be fed 4 hours after administration. The IV group was not required to fast.
The animals were weighed before administration. On the day of administration, the solution was IV/PO-administered once in an administration amount calculated based on the weight. In the IV group, blood was collected from veins at 0.083 h, 0.25 h, 0.5 h, 1.0 h, 2.0 h, 4.0 h, 8.0 h, and 24 h after administration. In the PO group, blood was collected from veins at 0.25 h, 0.5 h, 1.0 h, 2.0 h, 4.0 h, 6.0 h, 8.0 h, and 24 h after administration. The amount of blood collected was about 0.20 mL. K2-EDTA was used in blood collection tubes as an anticoagulant. The collected blood sample was centrifuged (centrifugation conditions: 6800 g, 6 min, 2°C to 8°C) within 1 h to obtain plasma. The to-be-tested sample was stored in a refrigerator at -80°C before analysis.
The concentration of the tested compound in the plasma of the SD male rats was detected by the validated LC-MS/MS method.

Another data set concerns the target T2, CYP 3A4M (Homo sapiens, UniProt P08684).
T2 construct: from tissue; host or cells: human liver microsomes (HLM)
In words: Inhibition of P450 enzyme (CYP 3A4, midazolam as substrate) in human liver microsomes. It is filed as in vitro ADME. Here is the method:
The inhibitory effect of the tested compound on 3A4-M (with midazolam as a substrate) in human liver microsomes is evaluated in vitro to assess the safety of the compound.
In this study, the inhibition of CYP 3A4 enzyme in human liver microsomes by the tested compound was investigated using the human liver microsomal system and the cytochrome P450 enzyme probe substrate recommended by the FDA Guidance for In Vitro Drug Interaction Studies. The human liver microsomes were incubated separately with the tested compound of different concentrations (0 µM to 30.0 µM) and corresponding probe substrates. Then, the changes of activity of the CYP enzyme were determined, and the IC50 value was calculated, to evaluate the inhibitory potential of the tested compound on the CYP 3A4 enzyme.
Test group (TG): The human liver microsomes were incubated separately with the tested compound of different concentrations, NADPH (in a final concentration of 2.00 mM), and probe substrates (Table 4) of different enzymes in subfamilies for 5 min.
Positive control group (PC): The human liver microsomes were incubated separately with an inhibitor (Table 4), NADPH (in a final concentration of 2.00 mM), and a probe substrate (Table 4) of 3A4M for 5 min. Table 4 Probe substrate of each enzyme in the subfamily, inhibitor, and incubation system
At the end of the incubation, the reaction was terminated with a stop solution.
8 µL of 30 mM test sample was transferred to 12 µL of DMSO to give a 12 mM test sample intermediate solution, and then diluted with DMSO to give test sample working solutions in different concentrations (12 mM, 4 mM, 1.33 mM, 0.433 mM, 0.147 mM, 0.049 mM, and 0.0164 mM).
To 12 µL of DMSO was added 8 µL of 2.5 mM CYP3A4 inhibitor ketoconazole stock solution to give a 1 mM positive control inhibitor working solution.
(§1) 199 µL of 0.2 mg/mL HLM and 1 µL of test sample working solution (12 mM, 4 mM, 1.33 mM, 0.433 mM, 0.147 mM, 0.049 mM, and 0.0164 mM) were mixed uniformly. 30 µL of this liver microsome solution was added to a 96-well plate, and then 10 µL of substrate working solution (320 µM testosterone or 20 µM midazolam) was added. This preparation process was carried out in duplicate. After pre-incubation at 37°C for 5 min, 15 µL of 8 mM NADPH solution pre-warmed at 37°C for 5-10 min was added to initiate the reaction. After incubation in the 96-well plate at 37°C for 5 min, 180 µL of acetonitrile/methanol (ACN:MeOH = 1:1) solution containing the internal standard (IS) was added to terminate the reaction. The 96-well plate was shaken at 600 rpm for 5-10 min, and then centrifuged at 6000 rpm for 15 min. 80 µL of supernatant was taken and added to 120 µL of ultrapure water, shaken uniformly, and then detected by LC-MS/MS.
as §1, with “1 mM positive control inhibitor (ketoconazole)” for “test sample”, “solution” for “solution (12 mM, 4 mM, 1.33 mM, 0.433 mM, 0.147 mM, 0.049 mM, and 0.0164 mM)”, “(20” for “(320 µM testosterone or 20”, “ACN:MeOH (1:1)” for “acetonitrile/methanol (ACN:MeOH = 1:1)”, “IS” for “the internal standard (IS)”, “LC-MS/MS. […]” for “LC-MS/MS.”
(Liver microsomes are a subcellular fraction often used to study metabolism.)

Setting [2] is: human liver microsomes 0.100 mg/mL, midazolam 5.00 µM as substrate, 5 min incubation, read-out: CYP 3A4M IC50.

T2 sequence (P08684 whole entry): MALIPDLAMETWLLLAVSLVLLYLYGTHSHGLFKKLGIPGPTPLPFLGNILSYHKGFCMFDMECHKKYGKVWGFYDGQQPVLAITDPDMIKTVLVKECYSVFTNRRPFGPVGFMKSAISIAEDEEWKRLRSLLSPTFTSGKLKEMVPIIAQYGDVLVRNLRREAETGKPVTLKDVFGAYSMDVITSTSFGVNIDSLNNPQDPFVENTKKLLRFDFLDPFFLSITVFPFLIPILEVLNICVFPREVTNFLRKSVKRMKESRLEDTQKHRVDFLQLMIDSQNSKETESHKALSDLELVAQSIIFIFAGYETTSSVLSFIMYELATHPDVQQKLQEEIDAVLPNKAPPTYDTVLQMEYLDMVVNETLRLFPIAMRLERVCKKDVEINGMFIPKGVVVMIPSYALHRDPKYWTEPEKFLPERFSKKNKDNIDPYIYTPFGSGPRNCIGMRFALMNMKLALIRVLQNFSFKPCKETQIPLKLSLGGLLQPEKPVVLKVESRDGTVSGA
T1 sequence (P32245 whole entry): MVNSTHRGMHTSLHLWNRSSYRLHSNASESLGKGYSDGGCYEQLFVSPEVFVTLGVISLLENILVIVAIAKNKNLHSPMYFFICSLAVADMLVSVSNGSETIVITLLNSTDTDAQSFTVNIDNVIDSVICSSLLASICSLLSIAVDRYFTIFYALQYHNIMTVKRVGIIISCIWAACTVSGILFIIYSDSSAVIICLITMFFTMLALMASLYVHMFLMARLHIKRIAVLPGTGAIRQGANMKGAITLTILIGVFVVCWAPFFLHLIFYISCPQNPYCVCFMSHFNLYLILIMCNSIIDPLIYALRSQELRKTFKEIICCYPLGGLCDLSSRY

For the compound `COc1cc([C@@H](C)C(=O)N2CC[C@H](Nc3ccc(-c4ncccn4)c(C)n3)C2)c(Cl)cn1` [Compound 083-1, (R)-2-(5-chloro-2-methoxypyridine-4-yl)-1-((S)-3-((6-methyl-5-(pyrimidine-2-yl)pyridine-2-yl)amino)pyrrolidine-1-yl)propane-1-one], the IC50 (commonly the concentration that gives 50% inhibition) on MC4R came to 1.82 nM. In data set [1], the F stood at 31.3%; the AUC (in general, concentration integrated over time) turned out to be 240 ng·h/mL; the Cmax (in general, the peak of the concentration-time curve) was determined as 156 ng/mL; the clearance was found to be 43.7 mL/min/kg. For the same compound, the half-life (as a rule, how long it takes for the measured level to halve) in data set [1] is 39 min. For the same compound, the IC50 on CYP 3A4M (setting [2]) is 5800 nM.
As to `COc1cc([C@@H](C)C(=O)N2CC[C@H](Nc3ccc(-c4nccc(C#N)n4)c(C)n3)C2)c(F)cn1` [Compound 111, 2-(6-(((S)-1-((R)-2-(5-fluoro-2-methoxypyridine-4-yl)propionyl)pyrrolidine-3-yl)amino)-2-methylpyridine-3-yl)pyrimidine-4-nitrile], the IC50 at MC4R was 3.4 nM; at CYP 3A4M (setting [2]), 2940 nM.
`COc1cc([C@@H](C)C(=O)N2C[C@H](C)[C@H](Nc3ccc(-c4ncccn4)c(C)n3)C2)c(Cl)cn1` [Compound 112, (R)-2-(5-chloro-2-methoxypyridine-4-yl)-1-((3 S,4S)-3-methyl-4-(6-methyl-5-(pyrimidine-2-yl)pyridine-2-yl-amino)pyrrolidine-1-yl)propane-1-one] displayed an IC50 on MC4R of 2.3 nM. In data set [1], the F stood at 33.8%, the AUC turned out to be 179 ng·h/mL, the highest level (Cmax) was 157 ng/mL and the clearance was found to be 62.5 mL/min/kg. Moreover, the half-life in data set [1] is 15 min.
Consider `COc1cc([C@@H](C)C(=O)N2C[C@@H](Nc3ccc(-c4ncccn4)c(C)n3)C3(CC3)C2)c(Cl)cn1` [Compound 114, (R)-2-(5-chloro-2-methoxypyridine-4-yl)-1-((S)-7-((6-methyl-5-(pyrimidine-2-yl)pyridine-2-yl)amino)-5-azaspiro[2.4]heptane-5-yl)propan-1-one], for which, on MC4R, the IC50 was determined as 2.45 nM. In data set [1], the F was 54.0%, the AUC was found to be 450 ng·h/mL, the Cmax turned out to be 197 ng/mL and the clearance came to 39.9 mL/min/kg. Moreover, the half-life in data set [1] is 58.8 min. For the same compound, on CYP 3A4M (setting [2]), the IC50 stood at 29500 nM.
For `COc1cc([C@@H](C)C(=O)N2C[C@@H](Nc3ccc(-c4nccc(C#N)n4)c(C)n3)C3(CC3)C2)c(F)cn1` [Compound 116, 2-(6-(((S)-5-((R)-2-(5-fluoro-2-methoxypyridine-4-yl)propionyl)-5-azaspiro[2.4]heptane-7-yl)amino)-2-methylpyridine-3-yl)pyrimidine-4-nitrile], the results for the IC50 at MC4R and on CYP 3A4M (setting [2]) were 2.15 nM and over 30000 nM, respectively.
Take `COc1cc([C@@H](C)C(=O)N2C[C@@H](Nc3ccc(-c4cn(C)nn4)c(C)n3)C3(CC3)C2)c(Cl)cn1` [Compound 165, (R)-2-(5-chloro-2-methoxypyridine-4-yl)-1-((S)-7-((6-methyl-5-(1-methyl-1H-1,2,3-triazol-4-yl)pyridine-2-yl)amino)-5-azaspiro[2.4]hept-5-yl)propan-1-one]: the IC50 on MC4R was 2.86 nM. In data set [1], the F was 56.0%, the AUC was determined as 858 ng·h/mL, the Cmax stood at 577 ng/mL and the clearance was determined as 22.3 mL/min/kg. Further, the half-life in data set [1] was 39 min.
As for `COc1cc([C@@H](C)C(=O)N2C[C@@H](Nc3ccc(-c4cn(C)c(OC(F)F)n4)c(C)n3)C3(CC3)C2)c(F)cn1` [Compound 185, (R)-1-((S)-7-((5-(2-(difluoromethoxy)-1-methyl-1H-imidazol-4-yl)-6-methylpyridine-2-yl)amino)-5-azaspiro[2.4]hept-5-yl)-2-(5-fluoro-2-methoxypyridine-4-yl)propan-1-one], the IC50 on MC4R stood at 0.54 nM. In data set [1], this compound registered an F of 22.9%, an AUC of 170 ng·h/mL, a Cmax of 129 ng/mL and a clearance of 45.4 mL/min/kg. In data set [1], the half-life is 40.8 min.
Regarding `COc1cc([C@@H](C)C(=O)N2CC[C@H](Nc3ccc(-c4ncccn4)c(C)n3)C2)c(Br)cn1` [Compound 200, (R)-2-(5-bromo-2-methoxypyridine-4-yl)-1-((S)-3-((6-methyl-5-(pyrimidine-2-yl)pyridine-2-yl)amino)pyrrolidine-1-yl)propan-1-one], the IC50 came to 0.98 nM at MC4R and 3750 nM on CYP 3A4M (setting [2]).
With `COc1cc([C@@H](C)C(=O)N2C[C@@H](Nc3ccc(-c4ncccn4)c(C)n3)C3(CC3)C2)c(Br)cn1` [Compound 201, (R)-2-(5-bromo-2-methoxypyridine-4-yl)-1-((S)-7-((6-methyl-5-(pyrimidine-2-yl)pyridine-2-yl)amino)-5-azaspiro[2.4]hept-5-yl)propan-1-one], the IC50 is 1.41 nM on MC4R and over 30000 nM on CYP 3A4M.
